Laboratory results published in US9102620B2, “Deuterated N-ethyl-N-phenyl-1,2-dihydro-4-hydroxy-5-chloro-1-methyl-2-oxoquinoline-3-carboxamide, salts and uses thereof” (TEVA PHARMACEUTICAL INDUSTRIES, LTD., priority 2010, dated 2015).
Where “and” joins values, the source holds several entries; their conditions need not be identical. Equal values may be shown once. Read-outs that look alike come from different tables or passages of the source.

Experiments:
[1] = Pharmacokinetic profile in rat plasma following oral administration; assay type: in vivo
Description: The main objectives of this example were: • Quantification of Compound 1, Compound 2, Compound 3 and Laquinimod in rat plasma using LC/MS/MS bioanalytical method. • Characterization of the pharmacokinetic profile of Compound 1, Compound 2, Compound 3 and Laquinimod following oral (PO) administration at a dose of 0.2 mg/kg. • The measurement DELAQ concentrations in the collected plasma samples. Rats cannulated at the right common jugular vein by polyethylene tubing were used. In the in-life part, three cannulated female rats were treated with each of the four test articles at dose of 0.2 mg/kg. Blood was withdrawn from the rats at five different time points for the preparation of plasma. The concentrations of Compound 1, Compound 2, Compound 3, laquinimod, and DELAQ were determined in these plasma samples, using applicable LC/MS/MS methods. Oral administration was performed by oral gavage at a dosage volume of 5 ml/kg using a blunt feeding stainless steel needle (Popper & Sons, USA). Body weights were measured before dose administration and doses were calculated on the basis of individual body weight. Blood were withdrawn from animals at the following time points: 1, 2, 4, 8 and 24 hours after dosing as detailed in the table below. The actual sampling time were recorded. Each animal was restrained firmly. After the removal of the seal the port of the cannula was accessed with an appropriate blunted needle mounted on a syringe containing PBS. After having withdrawn approximately 100 μL of blood, the syringe was changed to a clean heparinized syringe. Approximately 250 μL of blood was collected for the preparation of plasma. The first 100 μL fraction of blood was returned and 250 μL of PBS was given to the animal through the catheter. The catheter was filled by heparinized glycerol (100 IU/ml) solution prepared by mixing 10 ml stock heparin (200 IU/ml) with 10 ml of sterile glycerol (d=1.26 g/mL). Blood specimens were mixed immediately and were placed on water ice. Whole blood was centrifuged at 2500 g for 10 min at 4° C., and the separated plasma was transferred into pre-labeled polypropylene tubes and the tubes were frozen at −70° C. within 70 minutes of collection. The concentrations of test items (Compound 1, Compound 2, Compound 3 and Laquinimod) and the concentration of DELAQ were determined in the plasma samples by using reliable LC/MS/MS assay. Pharmacokinetic parameters were calculated and the mean plasma levels versus time curves were evaluated. The following pharmacokinetic parameters were determined from the mean plasma concentration-time data (mean of three animals at each time point) of Compound 1, Compound 2, Compound 3 and Laquinimod.

[2] = system: MOG induced EAE; assay: MOG induced EAE in C57BL/6 mice; assay type: in vivo; conditions: 10 mg/kg orally, daily; for Mortality: Day 0 to Day 30; for % inhibition 1 (according to incidence) / % inhibition 2 (according to MMS) / % inhibition 3 (according to GMS): compared to vehicle; for Incidence: sick mice/group
[3] = system: CYP1A2; conditions: human, 3 days; for Enzyme activity, Phenacetin O-dealkylation (CYP1A2) / Percent positive control, Phenacetin O-dealkylation (CYP1A2) activity: hepatocytes
Description: (§1) After treatment, the cells were incubated in situ with marker substrates for the analysis of phenacetin O-dealkylation (marker for CYP1A2) and midazolam 1′-hydroxylation (marker for CYP3A4/5) by LC/MS/MS.
Incubations of hepatocytes with probe substrates were conducted in accordance with SOP L5041.02. Approximately 24 hours after the last treatment, spent media was aspirated from the wells, and each well was rinsed two times with pre-warmed (37±2° C.) fresh culture media. Media was aspirated from the wells and reactions were started by addition of 200 μL pre-warmed media containing the probe substrate to each well. […] At 30 minutes, an aliquot (150 μL) of the incubation mixture was removed and added to a well of a 96-well plate containing 300 μL of stop reagent (acetonitrile) and internal standard (Table 2). The mixtures were mixed thoroughly and allowed to sit for at least 15 minutes at 2-8° C. Samples were centrifuged at 2000×g for 10 minutes at 2-8° C., and supernatant fractions were analyzed by LC/MS/MS.
All analyses were performed with validated LC/MS/MS methods. The procedures used for the analysis of each metabolite followed the applicable LC/MS/MS analytical method SOPs and are summarized in Table 2. The MS equipment was either an ABI Sciex (Applied Biosystems/MDS SCIEX) API 4000 or API 3000 instrument with Shimadzu HPLC pumps and autosampler systems.
Individual rates of reaction from like treatment groups were averaged, and for those groups with n≧3, standard deviations were determined. Fold increases were determined by dividing the enzymatic rate for each treatment group by that of the vehicle control. Percent positive control was calculated with the following equation: […]

[4] = system: CYP1A2 mRNA; conditions: human, 3 days
Description: as §1
Approximately 24 hours after the last treatment, hepatocytes were lysed in TRIzol reagent after the in situ marker substrate incubations, and cell lysates were stored at −75±5° C. For human hepatocyte preparation H971, media from six wells per treatment group was aspirated, and approximately 132 μL TRIzol were added to each well. The cell lysates were mixed by repeated pipetting. Total RNA was isolated from the cell lysates using the TRIzol protocol (Invitrogen) and was purified using the RNeasy Mini Kit (Qiagen Inc.) according to SOP L6161.02. RNA quality and concentration were determined by measuring absorbance at 260 and 280 nm on a BioTek Synergy HT plate reader (BioTek Instruments, Inc.) with KC4 Signature software (version 3.4 Rev 21, BioTek Instruments, Inc.) according to SOP L6162.02. The analysis of RNA integrity was carried out with the RNA 6000 Nano Assay Kit on an Agilent 2100 Bioanalyzer (Agilent Technologies, Inc.) according to SOP L6162.02. Single-stranded cDNA was prepared from RNA with the RT Master Mix using the AB 7300 Real Time PCR system thermocycling program or AB 7900HT Fast Real Time PCR System thermocycling program (Applied Biosystems) according to SOP L6160.04. […] The RT Master Mix was added to each RNA sample to complete the components of the reaction. No template controls (NTCs) were included in the analysis. For the NTC reactions, RNase-free water was added in place of the RNA sample. The cDNA prepared samples were stored at −20±5° C. prior to analysis by qRT-PCR.
Quantitative RT-PCR was carried out according to SOP L6160.04 (XenoTech, LLC) and the Applied Biosystems protocol. Each PCR was performed in triplicate. A Primer Mix was prepared for each Gene Expression assay. A typical Primer Mix contained TaqMan Universal Master Mix (1×), Gene Expression Assay (1×, 900 nM forward and reverse primers) and RNase-free water. The Reaction Mix was prepared by adding the Primer Mix to cDNA. A percentage of samples (no less than 10%) included NACs. […] The relative quantity of the target cDNA compared with that of the control cDNA (GAPDH) was determined by the ΔΔCt method (Applied Biosystems User Bulletin #2). Relative quantification measures the change in mRNA expression in a test sample relative to that in a control sample (e.g., DMSO). This method assumes that the efficiency of the target amplification and the efficiency of the endogenous control amplification are approximately equal.
For qRT-PCR, data were processed using the Sequence Detection System (SDS) Software version 1.4, for Relative Quantification (Applied Biosystems). This software analyzes relative gene expression using the comparative Ct method (ΔΔCt), which relates the PCR signal of the target transcript to the PCR signal of the target in an untreated control. Both the treated sample and the untreated control signals are normalized to the endogenous control (GAPDH), for which expression is not affected by treatment and expression is constant throughout the tissue being tested. […] Calculations are as follows: ΔCt=Ct(target)−Ct(endogenous control) 1. ΔΔCt=ΔCt(treated sample)−ΔCt(untreated control) 2. Fold change in expression=2−ΔΔCt 3.
The level of mRNA expression relative to the positive control was calculated as follows: […]

[5] = female, rat, po, 0.2 mg/kg, Average of rats
[6] = female, rat, po, 0.2 mg/kg, Average of rats, read-out: Cmax
[7] = female, rat, po, 0.2 mg/kg, Average of rats, read-out: Tmax
[8] = female, rat, po, 0.2 mg/kg, individual rats
[9] = female, rat, po, 0.2 mg/kg, individual rats, read-out: Cmax
[10] = female, rat, po, 0.2 mg/kg, individual rats, read-out: Tmax
[11] = individual rats, oral 0.2 mg/kg

| SMILES | AUC(0-inf) [1, 5] | AUC(0-t) [1, 5] | half-life [1, 5] | Cmax [1, 6] | Tmax [1, 7] | AUC(0-inf) [1, 8] | half-life [1, 8] | Cmax [1, 9] | Tmax [1, 10] | AUCinf [1, 11] | AUClast [1, 11] | Cmax [1, 11] | T1/2 [1, 11] | Tmax [1, 11] | GMS value (group mean score) [2] | MMS value (mean maximal score) [2] | Mean Duration [2] | Mean Onset [2] | activity in inhibition of EAE clinical signs compared to laquinimod [2] | Mortality [2] | also measured |
| --- | --- | --- | --- | --- | --- | --- | --- | --- | --- | --- | --- | --- | --- | --- | --- | --- | --- | --- | --- | --- | --- |
| [2H]c1c([2H])c([2H])c(N(CC)C(=O)c2c(O)c3c(Cl)cccc3n(C)c2=O)c([2H])c1[2H] [Compound 1, N-ethyl-N-D5-phenyl-1,2-dihydro-4-hydroxy-5-chloro-1-methyl-2-oxoquinoline-3-carboxamide] | 13800 ng·h/mL | 10400 ng·h/mL | 11.3 h | 774 ng/mL | 1.8 h | 19300 ng·h/mL | 13.4 h | 945 ng/mL | 1 h | 13617.9 ng·h/mL and 9733.8 ng·h/mL and 12447.9 ng·h/mL | 10011.7 ng·h/mL and 8039.3 ng·h/mL and 10061.6 ng·h/mL | 730.7 ng/mL and 611.9 ng/mL and 809.5 ng/mL | 12.1 h and 9.5 h and 10.0 h | 2.0 h | 0.74 ± 0.86 | 1.5 ± 1.7 | 7.9 ± 8.2 days | 22.1 ± 8.9 days | no significant difference in activity | 0/15 | AUC(0-t) [1, 8]: 13700 ng·h/mL; % inhibition 1 (according to incidence) [2]: 42.9%; % inhibition 2 (according to MMS) [2]: 53.1%; % inhibition 3 (according to GMS) [2]: 66.5%; Incidence [2]: 8/15 |
| [2H]c1c([2H])c([2H])c(N(C(=O)c2c(O)c3c(Cl)cccc3n(C)c2=O)C([2H])([2H])C([2H])([2H])[2H])c([2H])c1[2H] [Compound 3, N-D5-ethyl-N-D5-phenyl-1,2-dihydro-4-hydroxy-5-chloro-1-methyl-2-oxoquinoline-3-carboxamide] | 15800 ng·h/mL | 10500 ng·h/mL | 12.4 h | 835 ng/mL | 1.4 h | 15800 ng·h/mL | 11.5 h | 908 ng/mL | 1 h | 18246.2 ng·h/mL and 15225.2 ng·h/mL and 14845.1 ng·h/mL and 14643.7 ng·h/mL | 12110.0 ng·h/mL and 12471.5 ng·h/mL and 11280.4 ng·h/mL and 5317.8 ng·h/mL and 11156.0 ng·h/mL | 800.4 ng/mL and 728.9 ng/mL and 833.2 ng/mL and 904.3 ng/mL | 14.4 h and 12.7 h and 12.0 h and 11.6 h | 2.0 h | 0.89 ± 0.94 | 1.6 ± 1.6 | 9.6 ± 9.4 days | 21.5 ± 9.3 days | no significant difference in activity | 0/15 | % inhibition 1 (according to incidence) [2]: 28.6%; % inhibition 2 (according to MMS) [2]: 50.1%; % inhibition 3 (according to GMS) [2]: 59.7%; Incidence [2]: 10/15 |
| COCC(=O)O[C@]1(CCN(C)CCCc2nc3ccccc3[nH]2)CCc2cc(F)ccc2[C@@H]1C(C)C [Mibefradil] |  |  |  |  |  |  |  |  |  |  |  |  |  |  |  |  |  |  |  |  | Fold Increase, Phenacetin O-dealkylation (CYP1A2) activity ([3]; 10 μM): 3.76 fold; Enzyme activity, Phenacetin O-dealkylation (CYP1A2) ([3]; 10 μM): 11.3 ± 2.1 pmol/mg protein/min; Percent positive control, Phenacetin O-dealkylation (CYP1A2) activity ([3]; 10 μM): 10.1%; mRNA Fold increase, CYP1A2 ([4]; 10 μM): 0.423 fold; decrease in CYP1A2 mRNA levels compared to vehicle control ([4]; hepatocytes, 10 μM): 57.7%; mRNA Percent positive control, CYP1A2 ([4]; hepatocytes, 10 μM): −7.61% |
| COc1ccc2[nH]c([S+]([O-])Cc3ncc(C)c(OC)c3C)nc2c1 (centres unmarked) [Omeprazole] |  |  |  |  |  |  |  |  |  |  |  |  |  |  |  |  |  |  |  |  | Enzyme activity, Phenacetin O-dealkylation (CYP1A2) ([3]; 100 μM): 84.9 ± 5.4 pmol/mg protein/min; Percent positive control, Phenacetin O-dealkylation (CYP1A2) activity ([3]; 100 μM): 100%; mRNA Fold increase, CYP1A2 ([4]; 100 μM): 8.58 fold; mRNA Percent positive control, CYP1A2 ([4]; hepatocytes, 100 μM): 100% |
